In PubChem BioAssay (NCI):
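Step 1: Grow cells in 96-well plates. Step 2: Expose to compound for 48 hours at 5 concentrations. Step 3: Interpolate endpoints linearly; if unreached, use highest concentration. The concentration for 50% growth inhibition is given as GI50. Definition used: TGI = concentration required for complete inhibition of growth.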

Assays:
Assay in all cases: NCI tumour cell line growth inhibition, 48 h
[1] = test system: SK-MEL-2 melanoma
[2] = test system: CAKI-1 renal
[3] = test system: DU-145 prostate
[4] = test system: CCRF-CEM leukemia
[5] = test system: SNB-75 CNS
[6] = test system: OVCAR-5 ovarian
[7] = test system: A498 renal
[8] = test system: NCI/ADR-RES ovarian
[9] = test system: SK-OV-3 ovarian
[10] = test system: UACC-257 melanoma
[11] = test system: BT-549 breast
[12] = test system: SW-620 colon
[13] = test system: HT29 colon
[14] = test system: MDA-MB-231 breast
[15] = test system: UO-31 renal
[16] = test system: HCT-116 colon
[17] = test system: RPMI-8226 leukemia
[18] = test system: T-47D breast
[19] = test system: PC-3 prostate
[20] = test system: HCT-15 colon
[21] = test system: COLO 205 colon
[22] = test system: HL-60(TB) leukemia
[23] = test system: NCI-H460 lung
[24] = test system: NCI-H226 lung
[25] = test system: SN12C renal
[26] = test system: OVCAR-3 ovarian
[27] = test system: SF-268 CNS
[28] = test system: NCI-H522 lung
[29] = test system: ACHN renal
[30] = test system: SK-MEL-5 melanoma
[31] = test system: SNB-19 CNS
[32] = test system: M14 melanoma
[33] = test system: MOLT-4 leukemia
[34] = test system: 786-0 renal
[35] = test system: A549 NSCLC
[36] = test system: SR leukemia
[37] = test system: MCF7 breast
[38] = test system: SF-539 CNS
[39] = test system: SF-295 CNS
[40] = test system: K-562 leukemia
[41] = test system: OVCAR-4 ovarian
[42] = test system: SK-MEL-28 melanoma
[43] = test system: HOP-62 NSCLC
[44] = test system: HS 578T breast
[45] = test system: LOX IMVI melanoma
[46] = test system: OVCAR-8 ovarian
[47] = test system: KM12 colon
[48] = test system: MDA-MB-435
[49] = test system: U251 CNS
[50] = test system: IGROV1 ovarian
[51] = test system: NCI-H23 lung
[52] = test system: HCC-2998 colon
[53] = test system: UACC-62 melanoma
[54] = test system: HOP-92 NSCLC
[55] = test system: EKVX NSCLC
[56] = test system: RXF 393 renal
[57] = test system: TK-10 renal

With `c1ccc(OCCC[P+](c2ccccc2)(c2ccccc2)c2ccccc2)cc1` the GI50 [1] was 1.56 µM, the TGI [1] was 4.88 µM and the GI50 [2] was 10.1 µM. It also gave a TGI [2] of 27.9 µM, a GI50 [3] of 3.19 µM and a TGI [3] of 19.6 µM. The GI50 [4] was 1.85 µM, the TGI [4] was 18.1 µM and the GI50 [5] was 1.27 µM. For the same molecule, the TGI [5] was 6.7 µM, the GI50 [6] was 4.09 µM and the TGI [6] was greater than 100 µM. It also gave a GI50 [7] of 1.94 µM, a TGI [7] of 7.97 µM and a GI50 [8] greater than 100 µM. The TGI [8] was greater than 100 µM, the GI50 [9] was 4.11 µM and the TGI [9] was 32.4 µM. It also gave a GI50 [10] of 0.381 µM, a TGI [10] of 5.71 µM and a GI50 [11] of 1.42 µM. It also gave a TGI [11] of 17.1 µM, a GI50 [12] of 2.22 µM and a TGI [12] greater than 100 µM. For the same molecule, the GI50 [13] was 0.984 µM, the TGI [13] was 9.21 µM and the GI50 [14] was 2.33 µM. It also gave a TGI [14] of 11.2 µM, a GI50 [15] of 13.9 µM and a TGI [15] of 36.6 µM. For the same molecule, the GI50 [16] was 1.42 µM, the TGI [16] was 13.4 µM and the GI50 [17] was 0.303 µM. For the same molecule, the TGI [17] was 3.66 µM, the GI50 [18] was 0.383 µM and the TGI [18] was 29.5 µM. The GI50 [19] was 0.58 µM, the TGI [19] was 6.17 µM and the GI50 [20] was 22.2 µM. It also gave a TGI [20] greater than 100 µM, a GI50 [21] of 0.97 µM and a TGI [21] of 3.47 µM. It also gave a GI50 [22] of 0.285 µM, a TGI [22] of 0.832 µM and a GI50 [23] of 2.79 µM. For the same molecule, the TGI [23] was 13.5 µM, the GI50 [24] was 2.3 µM and the TGI [24] was 30.5 µM. For the same molecule, the GI50 [25] was 2.61 µM, the TGI [25] was 12.5 µM and the GI50 [26] was 1.12 µM. It also gave a TGI [26] of 19.4 µM, a GI50 [27] of 3.82 µM and a TGI [27] of 19.2 µM. It also gave a GI50 [28] of 0.574 µM, a TGI [28] of 4.24 µM and a GI50 [29] of 8.94 µM. It also gave a TGI [29] of 52.8 µM, a GI50 [30] of 0.438 µM and a TGI [30] of 1.74 µM. For the same molecule, the GI50 [31] was 2.27 µM, the TGI [31] was 17.8 µM and the GI50 [32] was 2.53 µM. For the same molecule, the TGI [32] was 18.1 µM, the GI50 [33] was 3.12 µM and the TGI [33] was 13.7 µM. The GI50 [34] was 4.14 µM, the TGI [34] was 20 µM and the GI50 [35] was 2.36 µM. For the same molecule, the TGI [35] was 20.3 µM, the GI50 [36] was 0.646 µM and the TGI [36] was 11.4 µM. It also gave a GI50 [37] of 0.677 µM, a TGI [37] of 10.3 µM and a GI50 [38] of 3.07 µM. The TGI [38] was 18.3 µM, the GI50 [39] was 1.97 µM and the TGI [39] was 7.77 µM. For the same molecule, the GI50 [40] was 0.634 µM, the TGI [40] was 16.3 µM and the GI50 [41] was 0.486 µM. It also gave a TGI [41] of 17.7 µM, a GI50 [42] of 1.09 µM and a TGI [42] of 13.4 µM. For the same molecule, the GI50 [43] was 4.55 µM, the TGI [43] was 42.8 µM and the GI50 [44] was 2.69 µM. The TGI [44] was 28.4 µM, the GI50 [45] was 2.18 µM and the TGI [45] was 6.75 µM. For the same molecule, the GI50 [46] was 1.83 µM, the TGI [46] was 12.8 µM and the GI50 [47] was 0.55 µM. The TGI [47] was 10.9 µM, the GI50 [48] was 0.481 µM and the TGI [48] was 10.3 µM. The GI50 [49] was 1.63 µM, the TGI [49] was 14 µM and the GI50 [50] was 1.42 µM. For the same molecule, the TGI [50] was 17.4 µM, the GI50 [51] was 1.81 µM and the TGI [51] was 10.9 µM.

In the case of `CCCCCCCCCCCCC(O)c1ccco1` (stereo not given), the GI50 [1] is reported as 22 µM, the TGI [1] is reported as 46 µM and the GI50 [2] is reported as 18 µM. The TGI [2] was 33.4 µM, the GI50 [3] was 19.3 µM and the TGI [3] was 35.1 µM. It also gave a GI50 [52] of 18.4 µM, a TGI [52] of 32.3 µM and a GI50 [4] of 19.4 µM. For the same molecule, the TGI [4] was 38.5 µM, the GI50 [5] was 21.1 µM and the TGI [5] was 39 µM. For the same molecule, the GI50 [6] was 16.1 µM, the TGI [6] was 30.3 µM and the GI50 [8] was 16.4 µM. The TGI [8] was 30.8 µM, the GI50 [9] was 22.5 µM and the TGI [9] was 44.7 µM. It also gave a GI50 [53] of 17.7 µM, a TGI [53] of 32.4 µM and a GI50 [10] of 22.6 µM. It also gave a TGI [10] of 39.4 µM, a GI50 [54] of 15.5 µM and a TGI [54] of 32.1 µM. The GI50 [11] was 20.1 µM, the TGI [11] was 40.8 µM and the GI50 [12] was 16.7 µM. The TGI [12] was 32 µM, the GI50 [13] was 35.8 µM and the TGI [13] was greater than 100 µM. The GI50 [14] was 17.4 µM, the TGI [14] was 32.7 µM and the GI50 [15] was 19 µM. It also gave a TGI [15] of 39.7 µM, a GI50 [16] of 22.2 µM and a TGI [16] of 52.1 µM. It also gave a GI50 [17] of 21 µM, a TGI [17] of 49.2 µM and a GI50 [18] of 35.5 µM. It also gave a TGI [18] greater than 100 µM, a GI50 [19] of 16.9 µM and a TGI [19] of 30.7 µM. For the same molecule, the GI50 [20] was 19.2 µM, the TGI [20] was 36 µM and the GI50 [21] was 36.6 µM. For the same molecule, the TGI [21] was greater than 100 µM, the GI50 [23] was 29.5 µM and the TGI [23] was greater than 100 µM. It also gave a GI50 [24] of 20.8 µM, a TGI [24] of 37.9 µM and a GI50 [25] of 17.1 µM. The TGI [25] was 31.7 µM, the GI50 [55] was 20.8 µM and the TGI [55] was 38.8 µM. It also gave a GI50 [26] of 17.9 µM, a TGI [26] of 34.4 µM and a GI50 [27] of 19.1 µM. The TGI [27] was 46 µM, the GI50 [28] was 20 µM and the TGI [28] was 41 µM. For the same molecule, the GI50 [29] was 17.9 µM, the TGI [29] was 31.7 µM and the GI50 [30] was 14.8 µM. The TGI [30] was 28.2 µM, the GI50 [31] was 25.9 µM and the TGI [31] was 70.7 µM. The GI50 [32] was 21 µM, the TGI [32] was 37.9 µM and the GI50 [33] was 25.4 µM. For the same molecule, the TGI [33] was 52 µM, the GI50 [56] was 24 µM and the TGI [56] was 44.7 µM. It also gave a GI50 [34] of 19.7 µM, a TGI [34] of 36.6 µM and a GI50 [35] of 25.5 µM. It also gave a TGI [35] of 48.1 µM, a GI50 [37] of 29.4 µM and a TGI [37] greater than 100 µM. The GI50 [57] was 22.8 µM, the TGI [57] was 40.9 µM and the GI50 [38] was 20.9 µM. The TGI [38] was 38.7 µM, the GI50 [39] was 19.7 µM and the TGI [39] was 39.3 µM. For the same molecule, the GI50 [40] was 29.1 µM, the TGI [40] was 48 µM and the GI50 [41] was 29.7 µM. The TGI [41] was 78.3 µM, the GI50 [42] was 24.3 µM and the TGI [42] was 55.3 µM. It also gave a GI50 [43] of 20.6 µM, a TGI [43] of 36.8 µM and a GI50 [44] of 16.2 µM. For the same molecule, the TGI [44] was 35.7 µM, the GI50 [45] was 17.9 µM and the TGI [45] was 32.2 µM. It also gave a GI50 [46] of 25.6 µM, a TGI [46] of 52.9 µM and a GI50 [47] of 21.7 µM. For the same molecule, the TGI [47] was 48.1 µM, the GI50 [48] was 19.4 µM and the TGI [48] was 35.6 µM. It also gave a GI50 [49] of 16.2 µM, a TGI [49] of 29.7 µM and a GI50 [50] of 21.1 µM. For the same molecule, the TGI [50] was 42.7 µM, the GI50 [51] was 16.2 µM and the TGI [51] was 30.4 µM.
